This passage reports IC50 results from patent publication US9422331B2, “2-oxo-2,3,4,5-tetrahydro-1 H-benzo[B]diazepines and their use in the treatment of cancer” (Hoffmann-La Roche Inc., priority 2012, dated 2016).

Structures are written as SMILES. Structures can show the parent of a compound that is named as a salt. Where two headings read alike, the source gives them in different places.

As usually defined, the IC50 is the point on the concentration scale where inhibition reaches its midpoint. A higher IC50 goes with lower potency.

One assay addresses BIR2 domain of XIAP (Homo sapiens (Human), UniProt P98170, C202A/C213G). The assay can be described thus: TR-FRET assay for BIR2: inhibition of binding of XIAP BIR2 domain to Peptide A (SMAC-derived peptide). Background: TR-FRET usually uses a lanthanide donor and a delayed reading to cut background.
The target in the next assay is BIR3 domain of XIAP (Homo sapiens (Human), UniProt P98170). The assay can be described thus: TR-FRET assay for BIR3: inhibition of binding of XIAP BIR3 domain to Peptide A (SMAC-derived peptide).
BIR3 domain of XIAP, sequence (P98170 241-356): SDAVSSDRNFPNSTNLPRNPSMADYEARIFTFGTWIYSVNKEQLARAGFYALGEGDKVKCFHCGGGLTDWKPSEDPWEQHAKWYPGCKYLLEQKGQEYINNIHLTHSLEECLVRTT
Setting [1] is: 6x Histidine-tagged BIR2 domain (amino acids 124-240 of XIAP), 10 nM, 20 nM peptide AVPIAQKSEK-(ε-biotin)-OH, TR-FRET.
The mark [2] stands for this setting: 6x Histidine-tagged BIR3 domain (amino acids 241-356 of XIAP), 10 nM, 20 nM peptide AVPIAQKSEK-(ε-biotin)-OH, TR-FRET.

BIR2 domain of XIAP, sequence (P98170 124-240 C202A/C213G): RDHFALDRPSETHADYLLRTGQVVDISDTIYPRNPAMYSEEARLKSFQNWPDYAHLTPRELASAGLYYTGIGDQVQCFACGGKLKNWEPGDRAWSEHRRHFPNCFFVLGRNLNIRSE

Take `CN[C@@H](C)C(=O)N[C@@H]1C(=O)N(Cc2noc3cc(Br)ccc23)c2ccccc2N(C(=O)CS(C)(=O)=O)[C@H]1C` [Example 41, (S)-N-((3S,4S)-1-((6-bromobenzo[d]isoxazol-3-yl)methyl)-4-methyl-5-(2-(methylsulfonyl)acetyl)-2-oxo-2,3,4,5-tetrahydro-1H-benzo[b][1,4]diazepin-3-yl)-2-(methylamino)propanamide 2,2,2-trifluoroacetate]: the results for the IC50 on BIR2 domain of XIAP and on BIR3 domain of XIAP were 416 nM and greater than 54800 nM, respectively.

Consider `CN[C@@H](C)C(=O)N[C@@H]1C(=O)N(Cc2ccnc3ccccc23)c2ccccc2N(C(=O)CS(C)(=O)=O)[C@H]1C` [Example 16, (S)-N-((2S,3S)-2-Methyl-1-(2-(methylsulfonyl)acetyl)-4-oxo-5-(quinolin-4-ylmethyl)-2,3,4,5-tetrahydro-1H-benzo[b][1,4]diazepin-3-yl)-2-(methylamino)propanamide hydrochloride], for which the 50% inhibitory concentration (IC50) at BIR2 domain of XIAP was 179 nM; at BIR3 domain of XIAP, greater than 54800 nM.

`CN[C@@H](C)C(=O)N[C@@H]1C(=O)N(Cc2nn(-c3ccccc3C#N)c3ccccc23)c2ccc(C#N)cc2N(C(=O)CS(C)(=O)=O)[C@H]1C` [Example 53, (S)-N-((3S,4S)-7-cyano-1-((1-(2-cyanophenyl)-1H-indazol-3-yl)methyl)-4-methyl-5-(2-(methylsulfonyl)acetyl)-2-oxo-2,3,4,5-tetrahydro-1H-benzo[b][1,4]diazepin-3-yl)-2-(methylamino)propanamide 2,2,2-trifluoroacetate]: the values for the IC50 at BIR2 domain of XIAP and on BIR3 domain of XIAP were 33 nM and greater than 54800 nM, respectively.

For `CN[C@@H](C)C(=O)N[C@@H]1C(=O)N(Cc2nn(-c3ccccc3C#N)c3ccccc23)c2ccccc2N(C(=O)c2ccc(C(C)=O)cc2)[C@H]1C` [Example 3, (S)-N-{(2S,3S)-1-(4-acetyl-benzoyl)-5-[1-(2-cyano-phenyl)-1H-indazol-3-ylmethyl]-2-methyl-4-oxo-2,3,4,5-tetrahydro-1H-benzo[b][1,4]diazepin-3-yl}-2-methylamino-propionamide hydrochloride], the values for the IC50 on BIR2 domain of XIAP (setting [1]) and on BIR3 domain of XIAP (setting [2]) were 12 nM and greater than 54800 nM, respectively.

Regarding `CN[C@@H](C)C(=O)N[C@@H]1C(=O)N(Cc2nn(-c3ccccc3C#N)c3ccccc23)c2ccccc2N(C(C)=O)[C@H]1C` [Example 19, (S)-N-((2S,3S)-1-Acetyl-5-((1-(2-cyanophenyl)-1H-indazol-3-yl)methyl)-2-methyl-4-oxo-2,3,4,5-tetrahydro-1H-benzo[b][1,4]diazepin-3-yl)-2-(methylamino)propanamide], the figures for the IC50 at BIR2 domain of XIAP (setting [1]) and on BIR3 domain of XIAP (setting [2]) were 44 nM and greater than 54800 nM, respectively.

On to `CN[C@@H](C)C(=O)N[C@@H]1C(=O)N(Cc2cc(=O)oc3cc(Cl)ccc23)c2ccccc2N(C(=O)CS(C)(=O)=O)[C@H]1C` [Example 40, (S)-N-((3S,4S)-1-((7-chloro-2-oxo-2H-chromen-4-yl)methyl)-4-methyl-5-(2-(methylsulfonyl)acetyl)-2-oxo-2,3,4,5-tetrahydro-1H-benzo[b][1,4]diazepin-3-yl)-2-(methylamino)propanamide 2,2,2-trifluoroacetate], for which the IC50 at BIR2 domain of XIAP was 354 nM; at BIR3 domain of XIAP it was greater than 54800 nM.

With `CN[C@@H](C)C(=O)N[C@@H]1C(=O)N(Cc2c(C)cnc3ccccc23)c2ccccc2N(C(C)=O)[C@H]1C` [Example 20, (S)-N-((2S,3S)-1-Acetyl-2-methyl-5-((3-methylquinolin-4-yl)methyl)-4-oxo-2,3,4,5-tetrahydro-1H-benzo[b][1,4]diazepin-3-yl)-2-(methylamino)propanamide dihydrochloride], the IC50 at BIR2 domain of XIAP was 55 nM; on BIR3 domain of XIAP, greater than 54800 nM.

Turning to `CCN[C@@H](C)C(=O)N[C@@H]1C(=O)N(Cc2c(C)ccc3ccccc23)c2ccc(C#N)cc2N(C(=O)CS(C)(=O)=O)[C@H]1C` [Example 28, (S)-N-((3S,4S)-7-Cyano-4-methyl-1-((2-methylnaphthalen-1-yl)methyl)-5-(2-(methylsulfonyl)acetyl)-2-oxo-2,3,4,5-tetrahydro-1H-benzo[b][1,4]diazepin-3-yl)-2-(ethylamino)propanamide hydrochloride], the IC50 on BIR2 domain of XIAP was 75 nM; at BIR3 domain of XIAP it was greater than 54800 nM.
